Columns and labels:
mice = experiment: Acute toxicity, mouse; format: in vivo; conditions: 24 hours
Procedure: (§1) The acute toxicity of the compounds of the invention was examined by the following method.
(§2) Male ddy-strain 5-week old mice and male Wistar-strain 8 week old rats, five per group, were used as experimental animals. Each of the compounds was dissolved in saline and administered perorally, and the toxicity of the compound was assessed 24 hours after the administration.

Acute toxicity, rat = format: in vivo; conditions: in vivo, po, Table 7, p.o., read-out: Presumed LD50
Procedure: as §1, §2

rats = experiment: Acute toxicity, rat; format: in vivo; conditions: Table 7, 1700 mg/kg p.o., 24 hours
Procedure: as §1, §2

[1] = system: mouse neuroblastoma cell line neuro-2a; experiment: Activity on neuro-2a, cells with outgrown neurites; format: cell-based
Outline: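 Mouse neuro-2a cells in DMEM with FCS exposed to compounds for 24 h (up to 6 concentrations, triplicate runs), glutaraldehyde-fixed and methylene blue-stained. Proportion of cells bearing a neurite at least twice the cell's long diameter counted microscopically over ≥200 cells.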

[2] = system: human neuroblastoma cell line GOTO; experiment: Activity on neuroblastoma cell line GOTO (cell number, number and length of neurites); format: cell-based
Outline: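 GOTO cells were cultured 1–2 days at 37 °C, 5% CO2, then switched to serum-free RPMI/MEM (1:1) with compounds in PBS at various concentrations for 24 h. Living cells were counted by erythrosine exclusion (3–6 dishes); neurite number and length per cell were measured from photographs.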

[3] = system: mouse neuroblastoma cell line neuro-2a; experiment: Activity on cell line neuro-2a (simple method); format: cell-based
Procedure: The biological activities in vitro of the compounds of formula (I) on cells of the nervous system were tested. The cells tested were human neuroblastoma cell line GOTO [see Sekiguchi, M., Oota, T., Sakakibara, K., Inui, N. & Fujii, G., Japan. J. Exp. Med., 49, 67-83 (1979)], and neuroblastoma cell line NB-1 [see Miyake, S., Shimo, Y., Kitamura, T., Nojyo, Y., Nakamura, T., Imkashuku, S. and Abe, T., The Autonomic Nervous System, 10, 115-120 (1973)], and mouse neuroblastoma cell line neuro-2a (Dainippon Pharmaceutical Co., Ltd.) which have been established as the cells of the nervous system. The above neuve cells were grown in an incubator at 37° C. in the presence of 5% carbon dioxide gas exponentially, and then cultivated for a certain period of time together with the compounds of formula (I). […]
(§3) As a simple method of evaluation, the number of cells have neurites with a length equal to, or larger than, the long diameter of the cell was divided by the total number of cells.

[4] = system: human neuroblastoma cell line GOTO; experiment: Activity on cell line GOTO (simple method); format: cell-based; conditions: 10 μg/ml, control 8.4
Procedure: The biological activities in vitro of the compounds of formula (I) on cells of the nervous system were tested. The cells tested were human neuroblastoma cell line GOTO [see Sekiguchi, M., Oota, T., Sakakibara, K., Inui, N. & Fujii, G., Japan. J. Exp. Med., 49, 67-83 (1979)], and neuroblastoma cell line NB-1 [see Miyake, S., Shimo, Y., Kitamura, T., Nojyo, Y., Nakamura, T., Imkashuku, S. and Abe, T., The Autonomic Nervous System, 10, 115-120 (1973)], and mouse neuroblastoma cell line neuro-2a (Dainippon Pharmaceutical Co., Ltd.) which have been established as the cells of the nervous system. The above neuve cells were grown in an incubator at 37° C. in the presence of 5% carbon dioxide gas exponentially, and then cultivated for a certain period of time together with the compounds of formula (I).
A culture medium [composed of 45% of RPMI 1640 medium, 45% modified Eagle's medium (MEM) and 10% of fetal calf serum (FCS) and containing penicillin G sodium (100 units/ml) and streptomycin sulfate (100 microgram/ml)] containing neurobalstoma cell line GOTO in the logarithmic growth period was poured in an amount of 2 ml each into polystyrene dishes (35 mm; made by Corning Co.) so that the cell concentration was 2 to 6×10^4 cells per dish, and the cells were cultured for 1 to 2 days in a carbon dioxide gas incubator containing 5% of carbon dioxide gas in air at 37° C. Then, the culture fluid was removed, and 2 ml of a fresh serum-free culture fluid (consisting of 50% of RPMI medium and 50% of MEM medium and containing penicillin G sodium and streptomycin sulfate in the same amounts as above) was added. At the same time, a presterilized PBS solution (phosphate buffered saline) of each of the test compounds in various concentrations was added to each of the dishes. After culturing for 24 hours, the number of living cells was counted. Furthermore, the culture was photographed, and from the photos, the number and length of neurites per cell were measured. The numer of living cells was counted for 3 to 6 dishes by resistance to staining with erythrosine dye. The number and length of the neurites were measured with regard to 6 photos (more than 200 cells per photo).
as §3

CN1Cc2nc(N3CCNCC3)ncc2C1=O [Compound 602]
Number of dead animals/number of test animals (mice; Table 7, 1000 mg/kg p.o.): 0/5
Number of dead animals/number of test animals (mice; Table 7, 1700 mg/kg p.o.): 0/5
Number of dead animals/number of test animals (mice; Table 7, 3000 mg/kg p.o.): 3/5
LD50 at 24 h (Acute toxicity, rat): > 1700 mg/kg
Number of dead animals/number of test animals (rats): 0/5
Cells having neurites with a length at least twice the long diameter of cell/total number of cells ([1]; Table 3 Run No. 6, 0.1 mM, control 4.4 ± 0.9): 6.2 ± 0.2%
Cells having neurites with a length at least twice the long diameter of cell/total number of cells ([1]; Table 3 Run No. 6, 3 mM, control 4.4 ± 0.9): 10.0 ± 0.9%

CC(C)Nc1ncccn1.O=P(O)(O)O [Isaxonine, 2-isopropylaminopyrimidine ortho-phosphate, reference compound]
Length of neurites (mean ± S.D.) ([2]; Table 1, Run No. 6 by footnote, 1 μg/ml, control 42.48 ± 19.64, all *P <0.01): 58.20 ± 25.40 μm/cell
Length of neurites (mean ± S.D.) ([2]; Table 1, Run No. 7 by footnote, 1 μg/ml, control 42.20 ± 17.75, all *P <0.01): 57.06 ± 28.78 μm/cell
Number of neurites/cell (mean ± S.D.) ([2]; Table 1, last control group (Run No. 7 by footnote), 1 μg/ml, control 1.77 ± 0.68): 1.91 ± 0.56 neurites/cell
Number of neurites/cell (mean ± S.D.) ([2]; Table 1, second control group (Run No. 6 by footnote), 1 μg/ml, control 1.79 ± 0.80): 2.00 ± 0.86 neurites/cell
Number of neurites/cell (mean ± S.D.) ([2]; Table 1 Run No. 1, 1 μg/ml, control 2.09 ± 0.61): 2.18 ± 0.77 neurites/cell
Number of cells (mean ± S.E.) ([2]; Table 1 Run No. 1, 1 μg/ml, control 14.34 ± 0.72): 17.63 ± 2.80 × 10^4 /dish
Length of neurites (mean ± S.D.) ([2]; Table 1 Run No. 1, 1 μg/ml, control 70.10 ± 43.03): 87.86 ± 56.03 μm/cell
Number of neurites/cell (mean ± S.D.) ([2]; Table 1 Run No. 1, 10 μg/ml, control 2.09 ± 0.61): 1.99 ± 0.51 neurites/cell
Number of cells (mean ± S.E.) ([2]; Table 1 Run No. 1, 10 μg/ml, control 14.34 ± 0.72): 19.18 ± 0.67 × 10^4 /dish
Length of neurites (mean ± S.D.) ([2]; Table 1 Run No. 1, 10 μg/ml, control 70.10 ± 43.03): 82.87 ± 50.70 μm/cell
Number of neurites/cell (mean ± S.D.) ([2]; Table 1 Run No. 2, 1 μg/ml, control 2.06 ± 0.60): 2.09 ± 0.66 neurites/cell
Number of cells (mean ± S.E.) ([2]; Table 1 Run No. 2, 1 μg/ml, control 12.30 ± 1.48): 14.89 ± 1.35 × 10^4 /dish
Length of neurites (mean ± S.D.) ([2]; Table 1 Run No. 2, 1 μg/ml, control 55.00 ± 37.26): 66.01 ± 40.21 μm/cell
Number of neurites/cell (mean ± S.D.) ([2]; Table 1 Run No. 3, 1 μg/ml, control 1.94 ± 0.69, all *P <0.01): 2.31 ± 0.86 neurites/cell
Number of cells ([2]; Table 1 Run No. 3, 1 μg/ml, control 3.17): 4.72 × 10^4 /dish
Length of neurites (mean ± S.D.) ([2]; Table 1 Run No. 3, 1 μg/ml, control 45.13 ± 22.71, all *P <0.01): 68.29 ± 24.83 μm/cell
Number of neurites/cell (mean ± S.D.) ([2]; Table 1 Run No. 4, 1 μg/ml, control 1.98 ± 0.74): 1.99 ± 0.70 neurites/cell
Number of cells (mean ± S.E.) ([2]; Table 1 Run No. 4, 1 μg/ml, control 5.48 ± 1.38): 9.44 ± 1.95 × 10^4 /dish
Length of neurites (mean ± S.D.) ([2]; Table 1 Run No. 4, 1 μg/ml, control 54.15 ± 33.64): 71.25 ± 40.39 μm/cell
Cells having neurites with a length at least twice the long diameter of cell/total number of cells ([1]; Table 3 Run No. 3, 0.03 mM, control 3.9 ± 0.3): 4.7 ± 0.4%
Cells having neurites with a length at least twice the long diameter of cell/total number of cells ([1]; Table 3 Run No. 3, 0.1 mM, control 3.9 ± 0.3): 6.8 ± 1.2%
Cells having neurites with a length at least twice the long diameter of cell/total number of cells ([1]; Table 3 Run No. 3, 1 mM, control 3.9 ± 0.3): 7.0 ± 0.8%
Cells having neurites with a length at least twice the long diameter of cell/total number of cells ([1]; Table 3 Run No. 4, 1 mM, control 3.1 ± 0.2): 5.7 ± 1.2%
Cells having neurites with a length at least twice the long diameter of cell/total number of cells ([1]; Table 3 Run No. 4, 3 mM, control 3.1 ± 0.2): 13.6 ± 2.3%
Cells having neurites with a length at least twice the long diameter of cell/total number of cells ([1]; Table 3 Run No. 4, 10 mM, control 3.1 ± 0.2): 34.4 ± 0.6%
Cells having neurites with a length at least twice the long diameter of cell/total number of cells ([1]; Table 3 Run No. 6, 10 mM, control 4.4 ± 0.9): 29.9 ± 0.9%
Cells having neurites with a length at least twice the long diameter of cell/total number of cells ([1]; Table 3 Run No. 7, 10 mM, control 2.5 ± 0.7): 24.9 ± 1.0%
Cells having neurites with a length at least twice the long diameter of cell/total number of cells ([1]; Table 3 Run No. 8, 10 mM, control 3.7 ± 0.4): 28.2 ± 1.6%
Cells having neurites with a length at least twice the long diameter of cell/total number of cells ([1]; Table 3 second Run No. 5, 1 mM, control 4.5 ± 0.3): 6.8 ± 2.2%
Cells having neurites with a length at least twice the long diameter of cell/total number of cells ([1]; Table 3 second Run No. 5, 10 mM, control 4.5 ± 0.3): 27.0 ± 3.4%
Average of the proportions ([3]; Table 2 neuro-2a Run No. 1, 1 μg/ml, control 7.9): 12.15%
Average of the proportions ([3]; Table 2 neuro-2a Run No. 2, 1 μg/ml, control 7.9): 12.15%
Average of the proportions ([3]; Table 2 neuro-2a Run No. 3, 0.1 μg/ml, control 2.0): 9.1%
Average of the proportions ([3]; Table 2 neuro-2a Run No. 3, 1 μg/ml, control 2.0): 9.1%
Average of the proportions ([4]; Table 2 GOTO Run No. 1): 12.58%
Average of the proportions ([4]; Table 2 GOTO Run No. 2): 12.58%
